Consider 21 molecules from patent USRE47689E1, “Compounds for treating spinal muscular atrophy” (PTC Therapeutics, Inc., priority 2011, dated 2019).

Read-outs that look alike come from different tables or passages of the source. Where only a bound is given, the exact number is not on record here.

The test system of one data set is Smn protein. In words: Smn protein assay in cultured cells (SMN HTRF). It is filed as cell-based, human. The settings on record: 48 hours; for EC1.5x (concentration giving 1.5-fold Smn protein increase): SMA Type 1 patient fibroblast cells (GM03813), 7-point concentration curve, SMN HTRF, concentration producing 1.5 times Smn protein vs DMSO vehicle control, read-out: EC1.5x for Smn protein expression; for maximum fold (Fold) increase of Smn protein: SMA patient fibroblast cells, 7-point concentration data, fold increase relative to vehicle control (SMN HTRF). The method, boiled down:
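Lysates in RIPA with protease inhibitors are incubated overnight at room temperature with HTRF anti-SMN antibodies. EC1.5x is derived from fold increase in ΔF over vehicle.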
(In general: TR-FRET usually uses a lanthanide donor and a delayed reading to cut background.)

Data set [1] has as its system SMN2 minigene (full length SMN2 minigene mRNA containing SMN2 exon 7). In words: SMN2 minigene mRNA splicing RT-qPCR assay in cultured cells. Type of data set: cell-based, human. The settings on record: Homo sapiens, HEK293-H, read-out: EC1.5x for production of full length SMN2 mRNA. Put shortly:
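HEK293H cells stably carrying the SMN2-A minigene treated 24 h at 37° C with compound (DMSO, 200× stock), then lysed. Multiplex RT-qPCR (SMN primers 0.4 μM final; 40 cycles) measures full-length exon 7-containing minigene mRNA, normalized to GAPDH and to vehicle; EC1.5x derived and binned by stars.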
On the technique in general: Real-time PCR tracks product formation cycle by cycle.

[2] abbreviates: HEK293H cells stably transfected with SMN2-A minigene, 24 hours, 7-point concentration curve, 1.5-fold relative to vehicle-treated cells.

The melting point is the temperature of the solid-liquid transition. In the case of `Cc1cn2cc(-c3cc4ccc(N5CC[C@H](NC(C)C)C5)cc4oc3=O)cc2c(C)n1` [Compound 725, 3-(1,3-dimethylpyrrolo[1,2-a]pyrazin-7-yl)-7-[(3S)-3-(propan-2-ylamino)pyrrolidin-1-yl]-2H-chromen-2-one], the melting point lay in the range of 217 to 220 °C. Besides, in the data set on Smn protein, the EC1.5x (concentration giving 1.5-fold Smn protein increase) lay within 300 to 1000 nM; the “maximum fold (Fold) increase of Smn protein” value (“maximum fold (Fold) increase” below) is “*** (fold increase between >1.35 and ≤1.5)”. In addition, the EC (1.5-fold) in data set [1] (setting [2]) was below 0.1 µM.
The molecule `C[C@H]1CN(c2ccc3cc(-c4nc(C(F)(F)F)cs4)c(=O)oc3c2)CCN1` [Compound 239, 7-[(3S)-3-methylpiperazin-1-yl]-3-[4-(trifluoromethyl)-1,3-thiazol-2-yl]-2H-chromen-2-one] yielded a melting point of 234 to 238 °C. Also, the “maximum fold (Fold) increase” value with Smn protein is recorded as “* (maximum fold increase of ≤1.2)”. Besides, the EC (1.5-fold) in data set [1] (setting [2]) was 1 to 3 µM.
`Cc1nn2cc(-c3cc4ccc(N5CCCNCC5)cc4oc3=O)nc2s1` [Compound 450, 7-(1,4-diazepan-1-yl)-3-(2-methylimidazo[2,1-b][1,3,4]thiadiazol-6-yl)-2H-chromen-2-one] came in with a melting point of 215 to 218 °C. In the data set with Smn protein, the EC1.5x (concentration giving 1.5-fold Smn protein increase) was 1000 to 3000 nM; the “maximum fold (Fold) increase” value is “*** (fold increase between >1.35 and ≤1.5)”. The EC (1.5-fold) in data set [1] (setting [2]) is 1 to 3 µM.
As for `Cc1cn2cc(-c3cc4ccc(OCCN5CCOCC5)cc4oc3=O)nc2c(C)n1` [Compound 956, 3-(6,8-dimethylimidazo[1,2-a]pyrazin-2-yl)-7-[2-(morpholin-4-yl)ethoxy]-2H-chromen-2-one], the melting point is 175 to 177 °C. In the data set with Smn protein, the EC1.5x (concentration giving 1.5-fold Smn protein increase) was 1000 to 3000 nM and the “maximum fold (Fold) increase” value is “***** (fold increase >1.65)”. Besides, the EC (1.5-fold) in data set [1] (setting [2]) lay within 0.1 to 0.3 µM.
The molecule `C[C@@H]1CN(c2ccc3cc(-c4ccc5c(c4)OCO5)c(=O)oc3c2)C[C@H](C)N1` [Compound 487, 3-(1,3-benzodioxol-5-yl)-7-[(3R,5S)-3,5-dimethylpiperazin-1-yl]-2H-chromen-2-one] gave a melting point of 123 to 125 °C. In addition, the “maximum fold (Fold) increase” value in the data set with Smn protein is reported as “* (maximum fold increase of ≤1.2)”. Moreover, in data set [1] (setting [2]), the EC (1.5-fold) lay within 3 to 30 µM.
The molecule `Cc1cn2cc(-c3cc4ccc(N5CCCNCC5)cc4oc3=O)nc2c(C(F)(F)F)n1` [Cpd 607, 7-(1,4-diazepan-1-yl)-3-[6-methyl-8-(trifluoromethyl)imidazo[1,2-a]pyrazin-2-yl]-2H-chromen-2-one] came in with a melting point above 300 °C. In the data set on Smn protein, the EC1.5x (concentration giving 1.5-fold Smn protein increase) was 300 to 1000 nM; the “maximum fold (Fold) increase” value was “*** (fold increase between >1.35 and ≤1.5)”. Moreover, the EC (1.5-fold) in data set [1] (setting [2]) is below 0.1 µM.
As to `Cc1cccn2cc(-c3cc4ccc(N5CCN[C@H](C)C5)cc4oc3=O)nc12` [Compound 247, 3-(8-methylimidazo[1,2-a]pyridin-2-yl)-7-[(3R)-3-methylpiperazin-1-yl]-2H-chromen-2-one], the melting point is 299 °C (dec.). Further, the “maximum fold (Fold) increase” value with Smn protein is “** (fold increase between >1.2 and ≤1.35)”. Further, the EC (1.5-fold) in data set [1] (setting [2]) lay within 0.1 to 0.3 µM.
On to `Cc1nccc(-c2cc3ccc(N4CCNCC4)cc3oc2=O)n1.Cl` [Cpd 274, 3-(2-methylpyrimidin-4-yl)-7-(piperazin-1-yl)-2H-chromen-2-one hydrochloride], for which the melting point was 200 °C (dec.). Further, in the data set with Smn protein, the “maximum fold (Fold) increase” value is “** (fold increase between >1.2 and ≤1.35)”. The EC (1.5-fold) in data set [1] (24 h) was in the range of 1 to 3 µM.
On to `Cc1ccn2cc(-c3cc4ccc(N5CCNC6(CCC6)C5)cc4oc3=O)nc2c1` [Compound 595, 7-(5,8-diazaspiro[3.5]non-8-yl)-3-(7-methylimidazo[1,2-a]pyridin-2-yl)-2H-chromen-2-one], for which the melting point was in the range of 226 to 233 °C. Also, the “maximum fold (Fold) increase” value in the data set on Smn protein was “** (fold increase between >1.2 and ≤1.35)”. The EC (1.5-fold) in data set [1] (setting [2]) is 0.3 to 1 µM.
Take `C[C@H]1CN(c2ccc3cc(-c4ccc5c(c4)OCCO5)c(=O)oc3c2)CCN1` [Compound 513, 3-(2,3-dihydro-1,4-benzodioxin-6-yl)-7-[(3S)-3-methylpiperazin-1-yl]-2H-chromen-2-one]: the melting point lay within 196 to 198 °C. The “maximum fold (Fold) increase” value in the data set on Smn protein is on record as “* (maximum fold increase of ≤1.2)”. Moreover, the EC (1.5-fold) in data set [1] (setting [2]) is 1 to 3 µM.
`COc1cccc(-c2cc3ccc(N4CCN(C)CC4)cc3oc2=O)n1` [Compound 257, 3-(6-methoxypyridin-2-yl)-7-(4-methylpiperazin-1-yl)-2H-chromen-2-one] gave a melting point of 162 to 164 °C. In the data set on Smn protein, the “maximum fold (Fold) increase” value is listed as “* (maximum fold increase of ≤1.2)”. For the same molecule, the EC (1.5-fold) in data set [1] (setting [2]) lay within 1 to 3 µM.
`C[C@@H]1CN(c2ccc3cc(-c4nc5ccccc5s4)c(=O)oc3c2)C[C@H](C)N1` [Compound 24, 3-(1,3-benzothiazol-2-yl)-7-[(3R,5S)-3,5-dimethylpiperazin-1-yl]-2H-chromen-2-one]: the melting point fell in the range of 248 to 252 °C. Also, the “maximum fold (Fold) increase” value in the data set with Smn protein is “* (maximum fold increase of ≤1.2)”. Besides, in data set [1] (setting [2]), the EC (1.5-fold) fell in the range of 1 to 3 µM.
Molecule `Cc1ccc2nc(-c3cc4ccc(N(C)Cc5cccnc5)cc4oc3=O)cn2c1` [Compound 221, 3-(6-methylimidazo[1,2-a]pyridin-2-yl)-7-[methyl(pyridin-3-ylmethyl)amino]-2H-chromen-2-one] gave a melting point of 220 to 223 °C. The “maximum fold (Fold) increase” value in the data set with Smn protein was “* (maximum fold increase of ≤1.2)”. For the same molecule, the EC (1.5-fold) in data set [1] (setting [2]) is 1 to 3 µM.
In turn, `CN1CCN(c2ccc3cc(-c4cc5ccccn5n4)c(=O)oc3c2)CC1` [Compound 188, 7-(4-methylpiperazin-1-yl)-3-(pyrazolo[1,5-a]pyridin-2-yl)-2H-chromen-2-one] gave a melting point of 235 to 237 °C. Also, in the data set on Smn protein, the EC1.5x (concentration giving 1.5-fold Smn protein increase) was in the range of 3000 to 10000 nM; the “maximum fold (Fold) increase” value is “*** (fold increase between >1.35 and ≤1.5)”. Also, in data set [1] (setting [2]), the EC (1.5-fold) was in the range of 0.3 to 1 µM.
For `O=c1oc2cc(N3CCNCC3)ccc2cc1-c1cnccc1Cl` [Compound 235, 3-(4-chloropyridin-3-yl)-7-(piperazin-1-yl)-2H-chromen-2-one], the melting point fell in the range of 175 to 177 °C. Also, the “maximum fold (Fold) increase” value with Smn protein was “* (maximum fold increase of ≤1.2)”. In addition, in data set [1] (24 h), the EC (1.5-fold) lay in the range of 1 to 3 µM.
Molecule `CCN1CCN(c2ccc3cc(-c4cn5cc(C)sc5n4)c(=O)oc3c2)CC1` [Compound 151, 7-(4-ethylpiperazin-1-yl)-3-(2-methylimidazo[2,1-b][1,3]thiazol-6-yl)-2H-chromen-2-one] had a melting point of 205 to 208 °C. For the same molecule, the “maximum fold (Fold) increase” value in the data set on Smn protein is “* (maximum fold increase of ≤1.2)”. In addition, in data set [1] (setting [2]), the EC (1.5-fold) lay in the range of 3 to 30 µM.
As to `Cc1cn2cc(-c3cc4ccc(CCN(CCO)CCO)cc4oc3=O)nc2c(C)n1` [Compound 875, 7-{2-[bis(2-hydroxyethyl)amino]ethyl}-3-(6,8-dimethylimidazo[1,2-a]pyrazin-2-yl)-2H-chromen-2-one], the melting point lay in the range of 184 to 188 °C. In addition, in the data set on Smn protein, the EC1.5x (concentration giving 1.5-fold Smn protein increase) was below 300 nM; the “maximum fold (Fold) increase” value was “**** (fold increase between >1.5 and ≤1.65)”. Further, the EC (1.5-fold) in data set [1] (setting [2]) was below 0.1 µM.
`COc1cc(-c2cc3ccc(N4CCN(C)CC4)cc3oc2=O)ccn1` [Compound 165, 3-(2-methoxypyridin-4-yl)-7-(4-methylpiperazin-1-yl)-2H-chromen-2-one] returned a melting point of 169 to 171 °C. The “maximum fold (Fold) increase” value with Smn protein is “** (fold increase between >1.2 and ≤1.35)”. For the same molecule, the EC (1.5-fold) in data set [1] (setting [2]) fell in the range of 3 to 30 µM.
For `C[C@@H]1CN(c2ccc3cc(-c4cn5cc(F)cnc5n4)c(=O)oc3c2)CCN1` [Compound 481, 3-(6-fluoroimidazo[1,2-a]pyrimidin-2-yl)-7-[(3R)-3-methylpiperazin-1-yl]-2H-chromen-2-one], the melting point is 232 to 236 °C. In the data set with Smn protein, the “maximum fold (Fold) increase” value was “* (maximum fold increase of ≤1.2)”. Moreover, the EC (1.5-fold) in data set [1] (setting [2]) was 1 to 3 µM.
`Cc1cn2cc(-c3cc4ccc(N5CCN(CC(C)(C)O)CC5)cc4oc3=O)nc2c(C)n1` [Compound 962, 3-(6,8-dimethylimidazo[1,2-a]pyrazin-2-yl)-7-[4-(2-hydroxy-2-methylpropyl)piperazin-1-yl]-2H-chromen-2-one] showed a melting point of 212 to 214 °C. Further, in the data set with Smn protein, the EC1.5x (concentration giving 1.5-fold Smn protein increase) is below 300 nM and the “maximum fold (Fold) increase” value is “***** (fold increase >1.65)”. In addition, the EC (1.5-fold) in data set [1] (setting [2]) was below 0.1 µM.
`C[C@@H]1CN(c2ccc3cc(-c4cc5ccccn5c4)c(=O)oc3c2)C[C@H](C)N1` [Compound 553, 7-[(3R,5S)-3,5-dimethylpiperazin-1-yl]-3-(indolizin-2-yl)-2H-chromen-2-one] displayed a melting point of 164 to 167 °C. Besides, the “maximum fold (Fold) increase” value in the data set on Smn protein was “* (maximum fold increase of ≤1.2)”. For the same molecule, the EC (1.5-fold) in data set [1] (setting [2]) was in the range of 0.3 to 1 µM.
